From US7691417B2, “Tumor and mutation suppressing plant extract” (Clemson University Research Foundation, priority 2004, dated 2010)

Assays:
[1] = tested on: Salmonella typhimurium (Strain TA 100); test: Ames Salmonella/microsome mutagenic test with human S9 mix and mutagen 2-AA; format: cell-based
Experimental: Mutagenicity is evaluated following the Ames Salmonella mutagenic assay, a bacterial reverse mutation test using a histidine-dependent […] mutant of Salmonella typhimurium lacking both normal DNA repair mechanisms and the ability to grow on a histidine-free medium. See, D. R. Maron and B. Ames. Mutation Research. 1980. 113:173-215, incorporated herein by reference in its entirety. As one skilled in the art understands, the test assumes that DNA-altering chemicals cause mutations and that mutagenicity is closely associated with carcinogenicity. Induced mutations are estimated by the number of bacteria capable of growing on a histidine-free medium. […]
Colonies chosen to generate overnight cultures were grown in 5 ml nutrient broth #2 (Cat No. CM 0067; Oxid Products; Basingstone, Hampshire, UK) at […] to a density of 1-2×10^9 per ml (absorbance of 0.96±0.2 at 600 nm). […]
Test compounds with the S9 mix were incubated for 30 minutes at 37° C., filter sterilized (0.2 μm Acrodisc® V45W500; Pall Galman, Ann Arbor, Mich.), and divided into two 1.5 ml duplicate aliquots. […] Each aliquot was vortexed briefly and immediately poured on Petri dishes containing the minimal glucose agar (MGA) which were allowed to solidify, then inverted and incubated at 37° C. in the dark for 48 hours, after which revertant colonies on control and test plates were counted.

[2] = tested on: tumors induced by A. tumefaciens on potato discs; test: Potato disc tumor induction assay (Agrobacterium tumefaciens-induced tumors); format: cell-based, Solanium tuberosum L.
Experimental: Tumor suppression is evaluated following the well-known Agrobacterium tumor induction assay procedure. The assay depends on the unique property of Agrobacterium tumefaciens of inserting a portion of its tumor-inducing (Ti) plasmid into the chromosomal DNA of a wounded plant, causing tumor-like growths on the plant, a condition commonly known to those skilled in the art as Crown Gall disease. Antitumor potential is measured by tumor suppression on aseptic potato discs treated with the plant extract. See A. B. Galsky, et al. J. Nat. Cancer Inst. 1981. 67:689-692, incorporated herein by reference, in its entirety. Antitumor activity detected by the Agrobacterium assay is correlated with suppression of tumors in animals; thus, plant extracts that suppress Agrobacterium-induced tumor formation have significant potential as human anticarcinogens.
Antitumor effects of extracts were tested using the Potato Tumor Induction method of McLaughlin's laboratories. 1 A. tumefaciens was cultured in Difco Yeast Extract Medium for a period of 48-72 hours at […] for use in the assay. […]

Nc1ccc2cc3ccccc3cc2c1 [2-AA, 2-aminianthuracene]
revertant colonies formed in the presence of 2-AA ([1]; 2-AA alone (DMSO + S9), no extract): 991.6 | colonies formed with 2-AA relative to the control ([1]; 991.6 versus control 48.2): approximately 20 fold

CC[C@@]1(O)C(=O)OCc2c1cc1n(c2=O)Cc2cc3ccccc3nc2-1 [camptothecin, Camptothecin]
% INHIBITION (tumor) ([2]; parallel study, dilution 1:10,000, Table 2): 100% | tumor inhibition ([2]; positive inhibitory control of the Table 1 study, camptothecin stock 100 μg/ml): 98.2%
